According to the NIST ThermoML archive (doi:10.1021/je700406p):

Assay: wn = mass fraction of the nth substance listed
Settings: Liquid, Vibrating tube method

CC(C)(N)CO [2-amino-2-methylpropan-1-ol] + O
Settings	mass density [kg/m3]
362.73 K, 5010 kPa, w1 = 0.4976	938.3
362.73 K, 5993 kPa, w1 = 0.2821	956.3
362.73 K, 6002 kPa, w1 = 0.4976	938.8
362.73 K, 6993 kPa, w1 = 0.2821	956.8
362.73 K, 6999 kPa, w1 = 0.4976	939.3
362.73 K, 7992 kPa, w1 = 0.4976	939.8
362.73 K, 8006 kPa, w1 = 0.2821	957.3
362.73 K, 8992 kPa, w1 = 0.2821	957.7
362.73 K, 8997 kPa, w1 = 0.4976	940.3
362.73 K, 9994 kPa, w1 = 0.2821	958.1
362.73 K, 10028 kPa, w1 = 0.4976	940.9
362.73 K, 10990 kPa, w1 = 0.4976	941.3
362.73 K, 10992 kPa, w1 = 0.2821	958.6
362.73 K, 11992 kPa, w1 = 0.2821	959.1
362.73 K, 11996 kPa, w1 = 0.4976	941.8
362.73 K, 12991 kPa, w1 = 0.2821	959.5
362.73 K, 13002 kPa, w1 = 0.4976	942.3
362.73 K, 13992 kPa, w1 = 0.2821	959.9
362.73 K, 13994 kPa, w1 = 0.4976	942.8
362.73 K, 14986 kPa, w1 = 0.4976	943.3
362.73 K, 14988 kPa, w1 = 0.2821	960.4
362.73 K, 15987 kPa, w1 = 0.2821	960.8
362.73 K, 15995 kPa, w1 = 0.4976	943.8
362.73 K, 16985 kPa, w1 = 0.4976	944.3
362.73 K, 16990 kPa, w1 = 0.2821	961.3
362.73 K, 18007 kPa, w1 = 0.4976	944.8
362.73 K, 18019 kPa, w1 = 0.2821	961.7
362.73 K, 18985 kPa, w1 = 0.2821	962.1
362.73 K, 18989 kPa, w1 = 0.4976	945.2
362.73 K, 19985 kPa, w1 = 0.2821	962.6
362.73 K, 19988 kPa, w1 = 0.4976	945.7
362.73 K, 21004 kPa, w1 = 0.4976	946.2
362.74 K, 532 kPa, w1 = 0.1997	957.9
362.74 K, 1001 kPa, w1 = 0.1997	958
362.74 K, 1014 kPa, w1 = 0.4002	946.1
362.74 K, 1992 kPa, w1 = 0.4002	946.6
362.74 K, 2000 kPa, w1 = 0.1997	958.5
362.74 K, 3000 kPa, w1 = 0.1997	959
362.74 K, 3010 kPa, w1 = 0.4002	947.1
362.74 K, 4000 kPa, w1 = 0.1997	959.4
362.74 K, 4009 kPa, w1 = 0.4002	947.5
362.74 K, 5000 kPa, w1 = 0.1997	960.1
362.74 K, 5001 kPa, w1 = 0.4002	948
362.74 K, 6000 kPa, w1 = 0.1997	960.4
362.74 K, 6003 kPa, w1 = 0.4002	948.5
362.74 K, 6999 kPa, w1 = 0.4002	949
362.74 K, 7000 kPa, w1 = 0.1997	960.7
362.74 K, 7990 kPa, w1 = 0.4002	949.4
362.74 K, 8001 kPa, w1 = 0.1997	961.2
362.74 K, 8995 kPa, w1 = 0.4002	949.9
362.74 K, 9009 kPa, w1 = 0.1997	961.6
362.74 K, 10004 kPa, w1 = 0.1997	962.1
362.74 K, 10039 kPa, w1 = 0.4002	950.4
362.74 K, 10986 kPa, w1 = 0.4002	950.8
362.74 K, 11001 kPa, w1 = 0.1997	962.4
362.74 K, 11991 kPa, w1 = 0.4002	951.3
362.74 K, 12999 kPa, w1 = 0.4002	951.8
362.74 K, 13999 kPa, w1 = 0.4002	952.2
362.74 K, 14990 kPa, w1 = 0.4002	952.7
362.74 K, 15993 kPa, w1 = 0.4002	953.2
362.74 K, 16984 kPa, w1 = 0.4002	953.6
362.74 K, 18005 kPa, w1 = 0.4002	954.1
362.74 K, 18993 kPa, w1 = 0.4002	954.5
362.74 K, 19978 kPa, w1 = 0.4002	955
362.74 K, 21014 kPa, w1 = 0.4002	955.4
